Assays:
Format in all cases: ADME, organism-based
[1] = Clearance in rat at 1 mg/kg, iv or 2 mg/kg, po by LC/MS/MS analysis; settings: in vivo
[2] = Volume of distribution at steady state in rat at 1 mg/kg, iv or 2 mg/kg, po by LC/MS/MS analysis; settings: in vivo, read-out: Vdss
[3] = Half life in rat at 1 mg.kg, iv or 2 mg/kg, po by LC/MS/MS analysis; settings: in vivo
[4] = Dose normalized AUC in rat at 2 mg/kg, po by LC/MS/MS analysis; settings: in vivo
[5] = Oral bioavailability in rat at 2 mg/kg by LC/MS/MS analysis; settings: in vivo

Compound | clearance [1] [mL/min/kg] | Vd [2] [L/kg] | half-life [3] [h] | AUC/dose [4] [µM·kg·h/mg] | bioavailability [5] [%]
CC[C@](C(=O)NC)(c1ccc(Cl)cc1)n1ccc2c(NS(C)(=O)=O)cccc21 | 67 | 2.8 | 0.6 | 0.13 | 21
CC[C@](CO)(c1ccc(Cl)cc1)n1ccc2c(NS(C)(=O)=O)cccc21 | 41 | 4.1 | 1.5 | 0.67 | 65

Reference: ChEMBL document CHEMBL4715716, “Discovery of novel non-steroidal reverse indole mineralocorticoid receptor antagonists” (Bioorg Med Chem Lett, 2016)
